Test results from patent US5354778A, “Antitumor compositions and methods of treatment” (priority 1993, dated 1994).
≈ marks a conversion by molar mass, not a printed value.

Experiments:
[1] = system: CCRF-CEM cells; assay: in vitro cytotoxicity against CCRF-CEM cells (50% inhibition of growth); format: cell-based, human; conditions: 72 h incubation; for IC50: Homo sapiens, CCRF-CEM
Protocol: The in vitro CCRF-CEM data reported in column 5 of the Table was obtained using CCRF-CEM cells, a human leukemia cell line, (Foley et al., Cancer, 1965, 18, 522) were grown as previously described (Grindey, et al., J. Mol. Pharmacol., 1979, 16, 601) both references incorporated herein by reference. Dose-response curves were generated for various compounds to determine the concentration required for 50% inhibition of growth (IC50). Cluster plates were prepared in duplicate with the compound at various concentrations. Test compounds were dissolved initially in DMSO at a concentration of 4 mg/mL and further diluted with solvent to the desired concentration. Cells in Roswell Park Memorial Institute 1640 media supplemented with 10% dialyzed fetal bovine serum, and 25 mM HEPES buffer were added to the well an a final concentration of 4.8×10^4 cells/well in a total volume of 2.0 mL. After 72 h of incubation (95% air, 5% CO2), cell numbers were determined on a ZBI Coulter counter. Cell number for indicated controls at the end of incubation was usually (4-6)×10^5 cells/well.

[2] = system: 6C3HED lymphosarcoma; assay: in vivo activity against 6C3HED lymphosarcoma (Gardner lymphosarcoma, GLS) transplanted in C3H mice, oral; conditions: for Toxic/Total (number of mice which died during test period/total number of mice in test group): 6C3HED tumor-bearing C3H mice; for inhibition in vivo at 150 mg/kg / inhibition in vivo at 300 mg/kg: Mus musculus, 6C3HED, po, 192 h, read-out: % Tumor Inhibition; for % Tumor Inhibition: 6C3HED tumor, C3H mice
Protocol: The compounds were tested in C3H mice bearing a 6C3HED lymphosarcoma, also known as the Gardner lymphosarcoma (GLS). The 6C3HED lymphosarcoma was obtained from the Division of Cancer Treatment, National Cancer Institute, Tumor Bank, maintained at E. G. and G. Mason Research (Worcester, Mass.). First passage tumor was stored in liquid nitrogen using standard techniques. The transplanted tumor was reestablished from the Tumor Bank every six months or as needed. The tumor was maintained by serial passage twice weekly in C3H mice.
In the procedure the tumor was removed from passage animals and minced into 1- to 3-mm square fragments using sterile techniques. Tumor pieces were checked for sterility using both Antibiotic Medium 1 and Brain Heart Infusion (Difco, Detroit, Mich.). Recipient mice were shaved and tumor pieces were implanted subcutaneously in the auxiliary region by trocar. Drug therapy on the appropriate schedule was initiated on the day after tumor implant. The compound being tested was mixed with 2.5 weight % of a polyoxyethylated oil known as "Emulphor EL-620" surfactant from GAF Chemicals Corporation (1:40 dilution of Empulphor in saline). All animals were weighed at the beginning and end of administration of the subject compounds. Food and water were provided ad libitum. The drug was administered orally in 0.5 ml of 2.5% Emulphor. Unless otherwise indicated, the compound was administered once per day for eight days. The tumor was measured the day after treatment ended with two dimensional measurements (width and length) of the tumor taken using Vernier calipers. Tumor weights were calculated from these measurements using the following formula:
(tumor weight in mg)=(width in mm)^2 ×(length in mm)/2
At least one control group of an equal number of mice was treated with the same volume of 2.5% Emulphor only. The percent inhibition was calculated by subtracting the ratio of the mean tumor size of the test group relative to the control group from 1 and multiplying the result by 100.
The results of administering some of the present compounds orally (unless otherwise indicated) to mice bearing a 6C3HED tumor are provided in the Table. In the Table, column 1 gives the example number corresponding to the preparation of the particular compound, column 2 provides the dose level, column 3 lists the percent inhibition of tumor growth, and column 4 gives the number of mice which died relative to the total number of animals in the group.

[3] = 150 mg/kg orally daily for eight days
[4] = 300 mg/kg orally daily for eight days

SMILES | IC50 [1] [µg/mL] | Toxic/Total (number of mice which died during test period/total number of mice in test group) [2, 3] | Toxic/Total (number of mice which died during test period/total number of mice in test group) [2, 4] | inhibition in vivo at 150 mg/kg [2] [%] | inhibition in vivo at 300 mg/kg [2] [%] | in vitro (CCRF-CEM) IC50 [1] [µg/mL] | % Tumor Inhibition [2, 3] [%] | % Tumor Inhibition [2, 4]
COc1c(C)cc(S(=O)(=O)NC(=O)Nc2ccc(Cl)cc2)cc1C [Example 15, N-[[(4-Chlorophenyl)amino]carbonyl]-3,5-dimethyl-4-methoxybenzesulfonamide] | 16.5 (≈ 44.7 µM) | 1/10 | 0/10 | 55 | 87 | – | – | –
Cc1cc(S(=O)(=O)NC(=O)Nc2ccc(Cl)c(Cl)c2)cc(C)c1C [Example 4, N-[[(3,4-Dichlorophenyl)amino]carbonyl]-3,4,5-trimethylbenzenesulfonamide] | 13.5 (≈ 34.9 µM) | 0/10 | 1/10 | 38 | 74 | – | – | –
O=C(Nc1ccc(Cl)cc1)NS(=O)(=O)c1cc(Cl)c(Cl)c(Cl)c1 [Example 6, N-[[(4-Chlorophenyl)amino]carbonyl]-3,4,5-trichlorobenzene sulfonamide] | > 20 | 0/10 | 3/10 | 99 | 99 | – | – | –
CN(C)c1c(Cl)cc(S(=O)(=O)NC(=O)Nc2ccc(Cl)cc2)cc1Cl [Example 14, N-[[(4-Chlorophenyl)amino]carbonyl]-4-(N,N,dimethylamino)-3,5-dichlorobenzene-sulfonamide] | 17 (≈ 40.2 µM) | 1/10 | 0/10 | 50 | 93 | – | – | –
Cc1cc(S(=O)(=O)NC(=O)Nc2ccc(Cl)cc2)cc(C)c1Cl [Example 12, N-[[(4-Chlorophenyl)amino]carbonyl]-4-chloro-3,5-dimethylbenzenesulfonamide] | 15 (≈ 40.2 µM) | 0/10 | 1/10 | 44 | 84 | – | – | –
CNc1c(Br)cc(S(=O)(=O)NC(=O)Nc2ccc(Cl)cc2)cc1Br [Example 18, N-[[(4-Chlorophenyl)amino]carbonyl]-3,5-dibromo-4-(N-methylamino)benzenesulfonamide] | 19.3 (≈ 38.8 µM) | 1/10 | 0/10 | 26 | 47 | – | – | –
Cc1cc(S(=O)(=O)NC(=O)Nc2ccc(Cl)cc2)cc(C)c1C [Example 1, N-[[(4-Chlorophenyl)amino]carbonyl]-3,4,5-trimethylbenzene sulfonamide] | 14.8 (≈ 41.9 µM) | 0/10 | 0/10 | 99 | 100 | – | – | –
Nc1c(Cl)cc(S(=O)(=O)NC(=O)Nc2ccc(Cl)cc2)cc1Cl [Example 7, N,[[(4-Chlorophenyl)amino]carbonyl]-4-amino-3,5-dichlorobenzenesulfonamide] | – | 0/10 | 10/10 | – | – | > 20 | 95 | Toxic
Cc1cc(S(=O)(=O)NC(=O)Nc2ccc(C(F)(F)F)cc2)cc(C)c1C [Example 3, N-[[(4 -Trifluoromethylphenyl)amino]carbonyl]-3,4,5-trimethylbenzenesulfonamide] | > 20 | 0/10 | 4/10 | 100 | 100 | – | – | –
Cc1cc(S(=O)(=O)NC(=O)Nc2ccc(Br)cc2)cc(C)c1C [Example 2, N-[[(4-Bromomhenyl)amino]carbonyl]-3,4,5-trimethylbenzenesulfonamide] | > 20 | 1/10 | 8/10 | 99 | 99 | – | – | –
COc1cc(S(=O)(=O)NC(=O)Nc2ccc(Cl)cc2)cc(OC)c1OC [Example 16, N-[[(4-Chlorophenyl)amino]carbonyl]-3,4,5-trimethoxylbenzenesulfonamide] | > 20 | 0/10 | 0/10 | 6 | 35 | – | – | –
